Our source for the Kd values is PMC6086659 (eLife, 2018).

Structures are written as SMILES.

In general, Kd refers to the equilibrium constant for the complex coming apart. High values mean weaker binding, low ones tighter binding.

This assay concerns the target T1, GABAA receptor β1 subunit (α1β1γ2SEM tri-heteromer) (Rattus norvegicus, UniProt P15431+P62813, P15431:DEL334-439/P15431:INS334GT/P62813:DEL340-408).
T1 construct: gene Gabrb1; purified α1β1γ2SEM receptor-Fab complex (M3/M4 loop deletions in α1 and β1; full-length γ2S); with GABAA receptor α1 subunit (Gabra1, P62813) and γ2S subunit (Gabrg2, P18508); 8E3 Fab
The assay is described as follows: radioligand saturation binding (scintillation proximity assay). Background: SPA uses beads or plates that emit light when radiolabelled molecules are held near them.

T1 sequence (P15431 with tags, fused parts or gaps DEL334-439/INS334GT): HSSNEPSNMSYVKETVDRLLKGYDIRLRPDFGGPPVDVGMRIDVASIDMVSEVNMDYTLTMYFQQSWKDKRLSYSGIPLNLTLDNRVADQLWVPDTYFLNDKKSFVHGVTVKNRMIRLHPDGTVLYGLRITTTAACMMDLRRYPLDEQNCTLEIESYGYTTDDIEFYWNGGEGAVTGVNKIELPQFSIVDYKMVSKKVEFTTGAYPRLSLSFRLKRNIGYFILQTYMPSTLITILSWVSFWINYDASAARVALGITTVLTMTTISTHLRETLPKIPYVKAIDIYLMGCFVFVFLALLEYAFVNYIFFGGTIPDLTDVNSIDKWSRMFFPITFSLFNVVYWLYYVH
T1 sequence (P62813 with tags, fused parts or gaps DEL340-408): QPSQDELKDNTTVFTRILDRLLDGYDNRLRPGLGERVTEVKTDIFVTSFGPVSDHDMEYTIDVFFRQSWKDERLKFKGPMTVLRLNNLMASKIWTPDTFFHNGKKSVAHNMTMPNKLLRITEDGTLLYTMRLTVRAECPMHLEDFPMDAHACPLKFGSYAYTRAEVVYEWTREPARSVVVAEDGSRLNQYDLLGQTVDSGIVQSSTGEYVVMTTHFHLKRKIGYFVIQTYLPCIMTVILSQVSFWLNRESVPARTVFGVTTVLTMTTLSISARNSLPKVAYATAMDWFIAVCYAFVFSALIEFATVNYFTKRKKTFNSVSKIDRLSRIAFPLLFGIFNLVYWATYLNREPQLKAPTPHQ
T1 sequence (P18508 39-466 partner): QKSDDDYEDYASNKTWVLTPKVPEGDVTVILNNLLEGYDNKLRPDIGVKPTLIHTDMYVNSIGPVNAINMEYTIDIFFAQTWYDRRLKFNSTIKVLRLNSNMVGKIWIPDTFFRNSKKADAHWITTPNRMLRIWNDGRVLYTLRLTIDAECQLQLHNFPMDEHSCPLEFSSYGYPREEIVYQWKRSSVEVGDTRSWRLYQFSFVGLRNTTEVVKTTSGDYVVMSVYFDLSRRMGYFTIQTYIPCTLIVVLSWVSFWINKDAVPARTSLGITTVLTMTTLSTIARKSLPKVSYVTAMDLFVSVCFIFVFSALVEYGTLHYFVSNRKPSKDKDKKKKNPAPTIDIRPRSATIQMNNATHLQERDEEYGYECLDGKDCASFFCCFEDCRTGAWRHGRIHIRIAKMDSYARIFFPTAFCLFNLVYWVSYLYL

In turn, `NCc1cc(=O)[nH]o1` [muscimol] had a Kd of 109 nM.
